How the values were obtained:
Format in all cases: in vivo
Avena (Ave) [1] = test: Example B4 post-emergence herbicidal action, MERGE oil additive 0.7% (Table B4); design: key: 1=total damage; 9=no action; details: 500 g of active substance per hectare; applied at 3- to 6-leaf stage; MERGE oil additive 0.7% by weight of the spray mixture; evaluation 3 weeks after application; scale of nine ratings
Protocol: (§1) Monocotyledonous and dicotyledonous weeds are grown in standard soil in plastics pots under greenhouse conditions. The test substances are applied to the test plants at the 3- to 6-leaf stage. The test substances are applied at a rate of application of 500 g of active substance per hectare in the form of an aqueous suspension (prepared from a 25% wettable powder (Example F3, b)) or in the form of an emulsion (prepared from a 25% emulsifiable concentrate (Example F1, c)) (500 liters of water/ha). The evaluation is carried out 3 weeks after application, using a scale of nine ratings (1=total damage, 9=no action). Ratings of from 1 to 4 (especially from 1 to 3) indicate good to very good herbicidal action. Herbicidal Action After the Emergence of the Plants (Post-emergence Action) of Compounds of the Present Invention (for Description See Example B2) Test plants: Avena (Ave), Lolium (Lol), Setaria (Set).

Lolium (Lol) [2] = test: as above; design: key: 1=total damage; 9=no action; details: 500 g of active substance per hectare; applied at 3- to 6-leaf stage; MERGE oil additive 0.7% by weight of the spray mixture; evaluation 3 weeks after application; scale of nine ratings
Protocol: as §1

Setaria (Set) [3] = test: as above; design: key: 1=total damage; 9=no action; details: 500 g of active substance per hectare; applied at 3- to 6-leaf stage; MERGE oil additive 0.7% by weight of the spray mixture; evaluation 3 weeks after application; scale of nine ratings
Protocol: as §1

Avena (Ave) [4] = test: Example B3 pre-emergence herbicidal action, MERGE oil additive 0.7% (Table B3); design: key: 1=total damage; 9=no action; details: 500 g of active substance/ha; MERGE oil additive 0.7% by weight of the spray mixture; evaluation 3 weeks after application; scale of nine ratings
Protocol: (§2) Monocotyledonous and dicotyledonous weeds are sown in standard soil in plastics pots. Immediately after sowing, the test substances are applied in the form of an aqueous suspension (prepared from a 25% wettable powder (Example F3, b)) or in the form of an emulsion (prepared from a 25% emulsifiable concentrate (Example F1, c)) (500 liters of water/ha). The rate of application is 500 g of active substance/ha. The test plants are then grown in the greenhouse under optimum conditions. The evaluation is carried out 3 weeks after application, sing a scale of nine ratings (1=total damage, 9=no action). Ratings of from 1 to 4 (especially from 1 to 3) indicate good to very good herbicidal action. Test plants: Avena (Ave), Lolium (Lol), Setaria (Set).

Lolium (Lol) [5] = test: as above; design: key: 1=total damage; 9=no action; details: 500 g of active substance/ha; MERGE oil additive 0.7% by weight of the spray mixture; evaluation 3 weeks after application; scale of nine ratings
Protocol: as §2

Setaria (Set) [6] = test: as above; design: key: 1=total damage; 9=no action; details: 500 g of active substance/ha; MERGE oil additive 0.7% by weight of the spray mixture; evaluation 3 weeks after application; scale of nine ratings
Protocol: as §2

Alopecurus (Alo) [7] = test: Example B1 pre-emergence herbicidal action (comparison test); design: key: 1=total damage; 9=no action; details: 500 g of active ingredient/ha; 3 weeks after application; scale of nine ratings, 1 to 4 = good to very good action
Protocol: (§3) Monocotyledonous and dicotyledonous weeds are sown in plastics pots in standard soil. Immediately after sowing, the test substances are applied in the form of an aqueous suspension (prepared from a 25% wettable powder (Example F3, b)) or in the form of an emulsion (prepared from a 25% emulsifiable concentrate (Example F1, c)) (500 liters of water/ha). The rate of application is 500 g of active substance/ha. The test plants are then grown in the greenhouse under optimum conditions. The evaluation is carried out 3 weeks after application, using a scale of nine ratings (1=total damage, 9=no action). Ratings of from 1 to 4 (especially from 1 to 3) indicate good to very good herbicidal action. Test plants: Alopecurus (Alo), Avena (Ave), Lolium (Lol), Setaria (Set), Panicum (Pan), Sorghum (Sor), Digitaria (Dig), Echinochloa (Ech) and Brachiaria (Bra).

Avena (Ave) [8] = test: as above; design: key: 1=total damage; 9=no action; details: 500 g of active ingredient/ha; 3 weeks after application; scale of nine ratings, 1 to 4 = good to very good action
Protocol: as §3

Brachiaria (Bra) [9] = test: as above; design: key: 1=total damage; 9=no action; details: 500 g of active ingredient/ha; 3 weeks after application; scale of nine ratings, 1 to 4 = good to very good action
Protocol: as §3

Echinochloa (Ech) = test: as above; design: key: 1=total damage; 9=no action; details: 500 g of active ingredient/ha; 3 weeks after application; scale of nine ratings, 1 to 4 = good to very good action
Protocol: as §3

Lolium (Lol) [10] = test: as above; design: key: 1=total damage; 9=no action; details: 500 g of active ingredient/ha; 3 weeks after application; scale of nine ratings, 1 to 4 = good to very good action
Protocol: as §3

Panicum (Pan) [11] = test: as above; design: key: 1=total damage; 9=no action; details: 500 g of active ingredient/ha; 3 weeks after application; scale of nine ratings, 1 to 4 = good to very good action
Protocol: as §3

Setaria (Set) [12] = test: as above; design: key: 1=total damage; 9=no action; details: 500 g of active ingredient/ha; 3 weeks after application; scale of nine ratings, 1 to 4 = good to very good action
Protocol: as §3

Sorghum (Sor) [13] = test: as above; design: key: 1=total damage; 9=no action; details: 500 g of active ingredient/ha; 3 weeks after application; scale of nine ratings, 1 to 4 = good to very good action
Protocol: as §3

Digitaria (Dig) [14] = test: as above; details: 500 g of active ingredient/ha; 3 weeks after application; scale of nine ratings, 1 to 4 = good to very good action
Protocol: as §3

Alopecurus (Alo) [15] = test: Example B2 post-emergence herbicidal action (comparison test); design: key: 1=total damage; 9=no action; details: 250 g of active ingredient/ha; 3- to 6-leaf stage; 3 weeks after application; scale of nine ratings, 1 to 4 = good to very good action
Protocol: (§4) Monocotyledonous and dicotyledonous weeds are grown in standard soil in plastics pots under greenhouse conditions. The test substances are applied to the test plants at the 3- to 6-leaf stage. […] suspension (prepared from a 25% wettable powder (Example F3, b)) or in the form of an emulsion (prepared from a 25% emulsifiable concentrate (Example F1, c)) (500 liters of water/ha). The evaluation is carried out 3 weeks after application, using a scale of nine ratings (1=total damage, 9=no action). Ratings of from 1 to 4 (especially from 1 to 3) indicate good to very good herbicidal action. Test plants: Alopecurus (Alo), Avena (Ave), Lolium (Lol), Setaria (Set), Panicum (Pan), Sorghum (Sor), Digitaria (Dig), Echinocloa (Ech) and Brachiaria (Bra).

Avena (Ave) [16] = test: as above; design: key: 1=total damage; 9=no action; details: 250 g of active ingredient/ha; 3- to 6-leaf stage; 3 weeks after application; scale of nine ratings, 1 to 4 = good to very good action
Protocol: as §4

Brachiaria (Bra) [17] = test: as above; design: key: 1=total damage; 9=no action; details: 250 g of active ingredient/ha; 3- to 6-leaf stage; 3 weeks after application; scale of nine ratings, 1 to 4 = good to very good action
Protocol: as §4

Echinocloa (Ech) = test: as above; design: key: 1=total damage; 9=no action; details: 250 g of active ingredient/ha; 3- to 6-leaf stage; 3 weeks after application; scale of nine ratings, 1 to 4 = good to very good action
Protocol: as §4

Lolium (Lol) [18] = test: as above; design: key: 1=total damage; 9=no action; details: 250 g of active ingredient/ha; 3- to 6-leaf stage; 3 weeks after application; scale of nine ratings, 1 to 4 = good to very good action
Protocol: as §4

Panicum (Pan) [19] = test: as above; design: key: 1=total damage; 9=no action; details: 250 g of active ingredient/ha; 3- to 6-leaf stage; 3 weeks after application; scale of nine ratings, 1 to 4 = good to very good action
Protocol: as §4

Setaria (Set) [20] = test: as above; design: key: 1=total damage; 9=no action; details: 250 g of active ingredient/ha; 3- to 6-leaf stage; 3 weeks after application; scale of nine ratings, 1 to 4 = good to very good action
Protocol: as §4

Sorghum (Sor) [21] = test: as above; design: key: 1=total damage; 9=no action; details: 250 g of active ingredient/ha; 3- to 6-leaf stage; 3 weeks after application; scale of nine ratings, 1 to 4 = good to very good action
Protocol: as §4

Digitaria (Dig) [22] = test: as above; details: 250 g of active ingredient/ha; 3- to 6-leaf stage; 3 weeks after application; scale of nine ratings, 1 to 4 = good to very good action
Protocol: as §4

Compound | Post-emergence action, rating, Ave (Avena (Ave) [1]) | Post-emergence action, rating, Lol (Lolium (Lol) [2]) | Post-emergence action, rating, Set (Setaria (Set) [3]) | further results
CCc1cc(C)cc(CC)c1-c1c(OC(=O)C(C)(C)C)n2n(c1=O)CC(OC)C(OC)C2 (stereo not drawn) [1.08] | 1 | 1 | 1 | 
CCc1cc(C)cc(CC)c1-c1c(O)n2n(c1=O)CC(O)C(Cl)C2 (stereo not drawn) [1.10] | 1 | 1 | 1 | 
CCc1cc(C)cc(CC)c1-c1c(O)n2n(c1=O)CC(OCC(C)C)CC2 (stereo not drawn) [1.11] | 1 | 1 | 1 | 
CCc1cc(C)cc(CC)c1-c1c(O)n2n(c1=O)CC(OC(C)C)CC2 (stereo not drawn) [1.14] | 1 | 2 | 2 | 
CCc1cc(C)cc(CC)c1-c1c(O)n2n(c1=O)CC(OCCOC)CC2 (stereo not drawn) [1.15] | 1 | 2 | 1 | 
CCc1cc(C)cc(CC)c1-c1c(O)n2n(c1=O)CC(OCCO)CC2 (stereo not drawn) [1.17] | 1 | 1 | 2 | 
CCc1cc(C)cc(CC)c1-c1c(O)n2n(c1=O)CC(OCC(=O)O)CC2 (stereo not drawn) [1.19] | 1 | 1 | 1 | 
CCc1cc(C)cc(CC)c1-c1c(O)n2n(c1=O)CC(OCC(=O)OC)CC2 (stereo not drawn) [1.23] | 1 | 1 | 1 | 
CCc1cc(C)cc(CC)c1-c1c(O)n2n(c1=O)CC(OC(C)C(=O)OC)CC2 (stereo not drawn) [1.26] | 1 | 2 | 1 | 
CCc1cc(C)cc(CC)c1-c1c(O)n2n(c1=O)CC1OC3(CCCCC3)OC1C2 (stereo not drawn) [1.27] | 1 | 1 | 2 | 
CCc1cc(C)cc(CC)c1-c1c(O)n2n(c1=O)CC(=NOC)CC2 [1.30] | 1 | 1 | 1 | 
CCc1cc(C)cc(CC)c1-c1c(O)n2n(c1=O)CC(OCCOCCOC)C(O)C2 (stereo not drawn) [1.35] | 1 | 1 | 1 | Pre-emergence action, rating, Ave (Avena (Ave) [4]): 1; Pre-emergence action, rating, Lol (Lolium (Lol) [5]): 1; Pre-emergence action, rating, Set (Setaria (Set) [6]): 1
CCc1cc(C)cc(CC)c1-c1c(O)n2n(c1=O)CC(O)C(O)C2 (stereo not drawn) [1.39] | 1 | 1 | 1 | 
CCc1cc(C)cc(CC)c1-c1c(OC(=O)C(C)(C)C)n2n(c1=O)CC(O)C(O)C2 (stereo not drawn) [1.40] | 1 | 1 | 2 | 
CCc1cc(C)cc(CC)c1-c1c(OC(=O)C(C)(C)C)n2n(c1=O)CCC(F)(F)CC2 [1.43] | 1 | 2 | 2 | 
Cc1cc(C)c(-c2c(OC(=O)C(C)(C)C)n3n(c2=O)CCCC3)c(C)c1 [compound A, reference compound] |  |  |  | Pre-emergence action rating, Alo (Alopecurus (Alo) [7]): 2; Pre-emergence action, rating, Ave (Avena (Ave) [8]): 4; Pre-emergence action rating, Bra (Brachiaria (Bra) [9]): 3; Pre-emergence action rating, Ech (Echinochloa (Ech)): 5; Pre-emergence action, rating, Lol (Lolium (Lol) [10]): 1; Pre-emergence action rating, Pan (Panicum (Pan) [11]): 1; Pre-emergence action, rating, Set (Setaria (Set) [12]): 2; Pre-emergence action rating, Sor (Sorghum (Sor) [13]): 4; Pre-emergence action rating, Dig (Digitaria (Dig) [14]): 4; Post-emergence action rating, Alo (Alopecurus (Alo) [15]): 3; Post-emergence action, rating, Ave (Avena (Ave) [16]): 3; Post-emergence action rating, Bra (Brachiaria (Bra) [17]): 2; Post-emergence action rating, Ech (Echinocloa (Ech)): 1; Post-emergence action, rating, Lol (Lolium (Lol) [18]): 2; Post-emergence action rating, Pan (Panicum (Pan) [19]): 1; Post-emergence action, rating, Set (Setaria (Set) [20]): 2; Post-emergence action rating, Sor (Sorghum (Sor) [21]): 3; Post-emergence action rating, Dig (Digitaria (Dig) [22]): 2
